Test results as given in ChEMBL document CHEMBL1157415, “Isolation, structure elucidation, and synthesis of cytotoxic tryptanthrin analogues from Phaius mishmensis” (J Nat Prod, 2008).

What was measured:
Type in all cases: functional, cell-based
MCF7 = assay: Cytotoxicity against human MCF7 cells
NCI-H460 = assay: Cytotoxicity against human NCI-H460 cells
SF-268 = assay: Cytotoxicity against human SF268 cells

SMILES | IC50 (MCF7; Homo sapiens, MCF7) | IC50 (NCI-H460; Homo sapiens, NCI-H460) | IC50 (SF-268; Homo sapiens, SF-268) | IC50 (MCF7; mcf7) | IC50 (NCI-H460; nci-h460) | IC50 (SF-268; sf-268)
COC(=O)CC1(O)c2ccccc2-n2c1nc1ccccc1c2=O (centres undefined) [PHAITANTHRINS B] | > 50 µM | > 50 µM | > 50 µM | – | – | –
CCCCCCCCC(=O)CC1(O)c2ccccc2-n2c1nc1ccccc1c2=O (centres undefined) | 40.5 µM | 42.8 µM | > 50 µM | – | – | –
CCC(=O)C(C)C1(O)c2ccccc2-n2c1nc1ccccc1c2=O (centres undefined) | 15.8 µM | 13.9 µM | 24.8 µM | – | – | –
O=C1CCCC1C1(O)c2ccccc2-n2c1nc1ccccc1c2=O (stereo in doubt; 11) | – | – | – | 19.7 µM | 19.1 µM | 34.8 µM
O=C(CC1(O)c2ccccc2-n2c1nc1ccccc1c2=O)c1ccccc1 (centres undefined) | > 50 µM | > 50 µM | > 50 µM | – | – | –
O=C1OC[C@@]23Nc4ccccc4C(=O)N2c2ccccc2[C@@H]13 [PHAITANTHRIN D] | > 50 µM | > 50 µM | > 50 µM | – | – | –
O=C1/C(=c2\c3ccccc3n3c(=O)c4ccccc4nc23)Nc2ccccc21 [CANDIDINE] | > 50 µM | > 50 µM | > 50 µM | – | – | –
COC(=O)C1(O)c2ccccc2N=C2C(=O)c3ccccc3N21 (centres undefined) [METHYLISATOID] | > 50 µM | > 50 µM | > 50 µM | – | – | –
O=C1c2c(O)cccc2-n2c1nc1ccccc1c2=O [PHAITANTHRIN C] | > 50 µM | > 50 µM | > 50 µM | – | – | –
CC(=O)CC1(O)c2ccccc2-n2c1nc1ccccc1c2=O (centres undefined) [PHAITANTHRINS A] | 28.2 µM | 31.4 µM | 45.4 µM | – | – | –
COC(=O)c1c2ccccc2n2c(=O)c3ccccc3[nH]c12 [PHAITANTHRIN E] | > 50 µM | > 50 µM | > 50 µM | – | – | –
O=C1c2ccccc2-n2c1nc1ccccc1c2=O [TRYPTANTHRIN] | 11.1 µM | 9 µM | 24.4 µM | – | – | –
O=C1CCCC1C1(O)c2ccccc2-n2c1nc1ccccc1c2=O (stereo in doubt; 12) | 20.7 µM | 20.6 µM | 33.9 µM | – | – | –
